According to ChEMBL document CHEMBL1135895, “Stereochemistry at phosphorus of the reaction catalyzed by myo-inositol monophosphatase” (J Med Chem, 2002):

Key:
[1] = IMPase-catalyzed hydrolysis at pH 9.00 at 25 degrees Centigrade.; type: ADME; details: for Km / k cat: buffer
[2] = Oxidation catalyzed by inositol dehydrogenase at pH 9.13.; type: ADME

Km [2] [µM]	k cat [2] [s⁻¹]	k cat/Km [2] [M⁻¹ s⁻¹]	SMILES	Ki [1] [µM]	Km [1] [µM]	k cat [1] [s⁻¹]
			OC1C(O)C(O)C(OP(O)(O)=S)C(O)C1O (stereo not drawn)	1140	2070	0.185
580	13.3	23100	O[C@H]1[C@H](O)[C@@H](O)[C@H](O)[C@@H](O)[C@H]1O [INOSITOL]			
			O=P(O)(O)OC1C(O)C(O)C(O)C(O)C1O (stereo not drawn)		110	0.48
